Source: ChEMBL document CHEMBL4334506, “Xylodon flaviporus-Derived Drimane Sesquiterpenoids That Inhibit Osteoclast Differentiation” (J Nat Prod, 2019)

Experiments:
BMDM [1] = test: Inhibition of M-CSF/RANKL-induced osteoclast differentiation in C57BL/6 mouse bone marrow macrophage after 4 days by TRAP-staining based microscopic analysis; format: functional, cell-based
[2] = Inhibition of M-CSF/RANKL-induced osteoclast differentiation in C57BL/6 mouse bone marrow macrophage assessed as reduction in multinucleated TRAP+ cells after 4 days by TRAP-staining based microscopic analysis; format: functional, cell-based; settings: C57BL/6, BMDM, 96 h
BMDM [3] = test: Cytotoxicity against M-CSF stimulated C57BL/6 mouse bone marrow macrophage cells at 1 to 10 uM after 4 days by XTT assay; format: cell-based; settings: 96 h
BMDM [4] = test: Cytotoxicity against M-CSF stimulated C57BL/6 mouse bone marrow macrophage cells at 3 to 30 uM after 4 days by XTT assay; format: cell-based; settings: 96 h

IC50 [2] [µM]	Structure (SMILES)	inhibition (BMDM [1])	Activity (BMDM [3])	Activity (BMDM [4])
2.1	CC1(C)CCC[C@]2(C)[C@@H]3C(=C[C@H](OC(=O)/C=C/c4ccc(O)cc4)[C@@H]12)CO[C@H]3O	Dose-dependent effect	Non-Toxic	
10.1	CO[C@@H]1OC(=O)C2=C[C@H](OC(=O)/C=C/c3ccccc3)[C@H]3C(C)(C)CCC[C@]3(C)[C@H]21	Dose-dependent effect	Non-Toxic	
8.5	CC1(C)CCC[C@]2(C)[C@H](O)C(C=O)=C[C@H](OC(=O)/C=C/c3ccccc3)[C@@H]12	Dose-dependent effect	Non-Toxic	
0.9	CC1(C)CCC[C@]2(C)C3=C(COC3=O)C[C@H](OC(=O)/C=C/c3ccc(O)cc3)[C@@H]12	Dose-dependent effect	Non-Toxic	
10.7	CC1(C)CCC[C@]2(C)[C@@H]3C(=C[C@H](OC(=O)/C=C/c4ccccc4)[C@@H]12)CO[C@H]3O	Dose-dependent effect		Non-Toxic
1.6	CC1(C)CCC[C@]2(C)C3=C(COC3=O)C[C@H](OC(=O)/C=C/c3ccccc3)[C@@H]12	Dose-dependent effect	Non-Toxic	
